Experimental data as given in patent US20220257571A1, “INHIBITOR OF MAP KINASE INTERACTING SERINE/THREONINE KINASE 1 (MNK1) AND MAP KINASE INTERACTING SERINE/THREONINE KINASE 2 (MNK2), CANCER THERAPY AND THERAPEUTIC COMBINATIONS” (FUNPACIÓ HOSPITAL UNIVERSITARI VALL D'HEBRON - INSTITUT DE …, priority 2019, published 2022).

Tests used:
[1] = molecular target: T1, EphA4 receptor tyrosine kinase (Homo sapiens, UniProt P54764); test: inhibitory test of EphA4 in the kinase panel; format: biochemical
T1 construct: purchased Proqinase
Experimental: The kinase activity of the compound was measured by a radiometric kinase assay (^33PanQinase® Activity Assay) carried out by Proqinase (www.proqinase.com).
The assays were carried out in 96-well FlashPlates™ by PerkinElmer (Boston, Mass., USA) with a reaction volume of 50 μl. The reaction cocktail was pipetted in 4 steps: (1) 20 μl buffer, (2) 5 μl ATP solution (in H2O), (3) 5 μl compound (in 10% DMSO) and (4) 20 μl enzyme/substrate mixture. Lastly, the cocktail contained 70 mM HEPES-NaOH pH 7.5, 3 mM MgCl2, 3 mM MnCl2, 3 μM sodium orthovanadate, 1.2 mM DTT, 50 μg/ml PEG20000, ATP (1 μM for MNK1 and 0.3 μM for MNK2), [γ-^33P]-ATP (approx. […] per well), protein kinase (variable amounts depending on the batch) and substrate (2 μg/50 μl).
Reaction cocktails were incubated at 30° C. for 60 minutes. The reaction was stopped with 50 μl of 2% H3PO4 (v/v), the plates were sucked, they were washed twice with 200 μl of 0.9% NaCl (w/v) and the incorporation of ^33Pi (MicroBeta microplate scintillation counter, Wallac) was determined. […]
The residual activity (in %) for each well of a particular plate was calculated using the following formula (wherein high control is the kinase activity in absence of an inhibitor and low control is the radioactivity value of the substrate in absence of a kinase).
To study selectivity, residual activity was measured at 1 μM from a 320-kinase panel.

[2] = tested on: eIF4E phosphorylation in MDA-MB-231 cells; test: inhibition of eIF4E phosphorylation by Western Blot in MDA-MB-231 cells; format: cell-based, human
Experimental: (§1) Commercially available MDA-MB-231, MDA-MB-468, MCF7 and A375M, IMR90 (IMR-90 (ATCC® CCL-186TH) cells were grown at 37° C. and 5% CO2 in DMEM medium (Dulbecco's Modified Eagle Medium, 4.5 g/I glucose; 30 mg/I L-Glutamine (Gibco)) supplemented with 10% foetal bovine serum, 100 U/ml penicillin and 100 μg/ml streptomycin.
(§2) Inhibition of eIF4E phosphorylation was quantified by Western Blot. Cells were seeded in 60 mm plates (700,000 cells for 24 h, 500,000 cells for 48 h and 300,000 cells for 72 h).
(§3) After 24 h, the treatments were added. The stocks of compounds were prepared in […] at a concentration 200 times more concentrated than the treatment concentration. Thus, in all cases, the final concentration of DMSO in the medium was 0.5%.
After incubation, proteins were removed and Western Blot was performed. On ice, the plates were washed with PBS and the cells were lysed with 60 μl lysis buffer (50 mM Tris, 200 mM NaCl, 5 mM EDTA, 0.1% Triton 100×, pH 7.5 supplemented with protease inhibitors (EDTA-free Protease Inhibitor Cocktail Set III, Calbiochem) and phosphatase inhibitors (Phosphatase Inhibitor Cocktail Set II, Calbiochem)). The samples were centrifuged at 15,000 g and the supernatant was quantified by the Bradford method. The samples were all diluted to the same concentration with a lysis buffer and loading buffer (Laemmli buffer) and denatured for 5 minutes at 95° C. The proteins were separated on a 12% […] gel (20 μg were loaded per well) and transferred to a PDVF (Polyvinylidene fluoride) membrane. β-Actin antibodies, abbreviated as “actin” in the figures (Calbiochem), eIF4E (anti-rabbit, Cell signalling), and phosphorylated-eIF4E (S209) (anti-rabbit, Cell signalling) in 5% BSA in TBST were used to study the activity of the compounds. Selectivity against MNK was analysed with ERK, p-ERK, MNK1, p-MNK1, 4EBP1 and p-4EBP1 antibodies.

MDA-MB-231 cells [3] = test: in vitro proliferation assay (crystal violet), MDA-MB-231; format: cell-based, human; conditions: tumour cells MDA-MB-231, concentrations necessary to inhibit MNK activity
Experimental: as §1
In 96-well plates, 5000 cells were seeded for each condition. After 24 h, the cells were treated with the compound at the corresponding concentration. The stocks of compounds were prepared in 100% DMSO at a concentration 200 times more concentrated than the treatment concentration. Thus, in all cases, the final concentration of DMSO in the medium is 0.5%. After incubation, the medium was removed and the cells were fixed with 4% PFA (100 μl per well) for 30 minutes. Two washes with PBS were performed.
Cells were stained with crystal violet (0.5% in EtOH): 100 μl were added to each well, stirred for 15 minutes, washed with water and left to dry. The content of each well was dissolved in 200 μl of 15% AcOH and the absorbance thereof was measured at 595 nm.

MDA-MB-231 cells [4] = test: FACS analysis of cell cycle and subG1, MDA-MB-231; format: cell-based; conditions: MDA-MB-231, higher concentrations
Experimental: To determine how cell growth is affected at higher concentrations of EB1, a FACS analysis was performed to monitor the state of the cell cycle and the percentage of cells in subG1 as an indicator of cell death. […] Equivalent results have been described for the MNK1/2 inhibitor BAY 11433296 (FIG. 4).

[5] = tested on: eIF4E phosphorylation in leukaemia cells (MV4-11); test: titration of eIF4E phosphorylation in MV4-11 cells; format: cell-based
Experimental: MV4-11 cells were grown in IMDM medium (Iscove's Modified Dulbecco's Medium, Gibco) supplemented with 10% FBS, 1% L-glutamine, 100 U/ml penicillin and 100 μg/ml streptomycin.
as §2, §3
(§4) After incubation, proteins were removed and Western Blot was performed. On ice, the plates were washed with PBS and the cells were lysed with 60 μl lysis buffer (50 mM Tris, 200 mM NaCl, 5 mM EDTA, 0.1% Triton 100×, pH 7.5 supplemented with protease inhibitors (EDTA-free Protease Inhibitor Cocktail Set III, Calbiochem) and phosphatase inhibitors (Phosphatase Inhibitor Cocktail Set II, Calbiochem)). The samples were centrifuged at 15,000 g and the supernatant was quantified by the Bradford method. The samples were all diluted to the same concentration with a lysis buffer and loading buffer (Laemmli buffer) and denatured for 5 minutes at 95° C. […] Selectivity against MNK was analysed with ERK, p-ERK, MNK1, p-MNK1, 4EBP1 and p-4EBP1 antibodies. […]

[6] = tested on: eIF4E phosphorylation in breast cancer cells (MDA-MB-468); test: titration of eIF4E phosphorylation in MDA-MB-468 cells; format: cell-based
Experimental: as §1, §2, §3
as §4, with “method.” for “method. The samples were all diluted to the same concentration with a lysis buffer and loading buffer (Laemmli buffer) and denatured for 5 minutes at 95° C.”

[7] = tested on: PD-L1 in MDA-MB-231 cells; test: PD-L1 levels by western blot in MDA-MB-231 cells; format: cell-based, human
Experimental: MDA-MB-231 cells were treated for 48 h with the indicated concentrations of the inhibitors. DMSO was used as vehicle control. Protein extracts were prepared and western blot analysis were carried out. Data are depicted in FIG. 10.

[8] = tested on: eIF4E phosphorylation, AR and AR-V7 in 22Rv1 cells; test: western blot analysis in 22Rv1 cells; format: cell-based; conditions: for levels of AR, AR-V7 and eIF4E phosphorylation: 22Rv1, 72 h

T1 sequence (P54764 20-986): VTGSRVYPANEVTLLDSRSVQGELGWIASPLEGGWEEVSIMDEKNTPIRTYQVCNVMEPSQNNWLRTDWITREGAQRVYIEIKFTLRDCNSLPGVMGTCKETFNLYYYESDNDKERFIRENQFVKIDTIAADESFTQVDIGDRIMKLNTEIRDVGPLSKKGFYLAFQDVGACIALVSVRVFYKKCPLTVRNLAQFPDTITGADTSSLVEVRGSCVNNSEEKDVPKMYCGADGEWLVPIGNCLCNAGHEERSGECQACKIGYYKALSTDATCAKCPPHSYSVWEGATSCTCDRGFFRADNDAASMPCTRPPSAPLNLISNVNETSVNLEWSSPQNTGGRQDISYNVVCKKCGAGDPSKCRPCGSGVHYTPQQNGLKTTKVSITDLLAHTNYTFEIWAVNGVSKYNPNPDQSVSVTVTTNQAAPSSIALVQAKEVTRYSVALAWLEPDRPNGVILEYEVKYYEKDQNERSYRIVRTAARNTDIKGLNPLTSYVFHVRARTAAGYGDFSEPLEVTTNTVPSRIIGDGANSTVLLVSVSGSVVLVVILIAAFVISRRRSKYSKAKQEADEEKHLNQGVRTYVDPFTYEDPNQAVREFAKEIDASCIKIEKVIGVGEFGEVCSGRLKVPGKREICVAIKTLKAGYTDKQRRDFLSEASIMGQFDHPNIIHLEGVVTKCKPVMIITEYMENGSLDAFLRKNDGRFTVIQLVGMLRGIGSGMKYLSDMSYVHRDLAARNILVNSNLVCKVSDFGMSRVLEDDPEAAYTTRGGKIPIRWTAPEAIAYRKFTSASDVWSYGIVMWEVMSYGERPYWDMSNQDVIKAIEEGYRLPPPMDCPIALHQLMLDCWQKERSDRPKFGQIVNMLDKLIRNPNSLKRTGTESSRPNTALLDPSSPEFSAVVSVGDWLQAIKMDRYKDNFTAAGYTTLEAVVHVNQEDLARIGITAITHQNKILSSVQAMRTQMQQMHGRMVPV

## Nc1n[nH]c2nc(-c3ccccc3)cc(-c3ccccc3)c12 [EB1, 4,6-diphenyl-1H-pyrazolo[3,4-b]pyridin-3-amine]
[1]
  inhibition at 1 µM: 10%
[2]; Homo sapiens, MDA-MB-231 triple-negative breast cancer cells, read-out: in vitro EC50, inhibition of eIF4E phosphorylation
  EC50: ~1500 nM
[2]; MDA-MB-231
  concentration at which eIF4E phosphorylation is significantly reduced: greater than 2.5 μM
  concentration giving almost complete inhibition of eIF4E phosphorylation: ≥ 2.5 µM
  duration of the effect on eIF4E phosphorylation: at least 72 h
[2]; MDA-MB-231, 5 μM EB1 with doxorubicin
  reversal of the increased eIF4E phosphorylation caused by doxorubicin: can be reversed
[2]; MDA-MB-231, Western Blot
  effect on components of the signalling pathway (p-MNK, ERK, 4E-BP1): does not affect any of the components of the signalling pathway
MDA-MB-231 cells [3]
  effect on cell growth: does not affect the cell growth
MDA-MB-231 cells [4]
  cells in the G1 phase of the cell cycle: increase of cells could be observed in the G1 phase
[5]
  activity as MNK inhibitor (eIF4E phosphorylation): active
[6]
  activity as MNK inhibitor (eIF4E phosphorylation): active
[7]; MDA-MB-231, 48 h
  levels of PD-L1: reduces levels of PD-L1
[7]; at comparable inhibition rates of eIF4E phosphorylation
  potency on PD-L1 compared with eFT508 and CGP57380: equally potent or superior
[8]; 22Rv1, 24 h EB1 treatment
  inhibition of eIF4E phosphorylation: Dose dependent inhibition
[8]; EB1 alone
  levels of AR, AR-V7 and eIF4E phosphorylation: reduction of AR, its splice variant AR-V7 and eIF4E phosphorylation
[8]; combination of EB1 and enzalutamide
  levels of AR, AR-V7 and eIF4E phosphorylation: more pronounced
